Legend:
MC3T3-E1 osteoblasts [1] = assay: Alkaline phosphatase (ALP) activity assay in MC3T3-E1 osteoblasts; assay type: cell-based; conditions: for cellular alkaline phosphatase (ALP) enzyme activities: 0.5, […], 5 μM; for concentration at which increases in ALP activities were already evident / concentration of maximum increase in ALP activities: at 24 and 48 h after treatment
Description: MC3T3-E1 (passage 4-10) was maintained in Minimal Essential Media (MEM) supplemented with 10% FBS, 1 mM Sodium Pyruvate and 1% 100 ug/ml penicillin-streptomycin (100 U/ml). All reagents are from GIBCO Life Technologies.
MC3T3-E1 cells were seeded at 1×10^5 cells per well in 24-well plate. […] After treatment, cells were washed twice with PBS and lysed with buffer contains 50 mM Tris pH7.4 and 0.1% Triton X-100. After 3 freeze-thaw cycles, 40 ul of cell lysate was mixed with 50 ul of 2× Assay buffer (2-Amino-2methyl-1-propanol, pH 10.4 with 4 mM MgCl2) and 10 ul of 0.1M 4-Nitrophenyl phosphate. Incubated in 37° C. and recorded at OD410.

MC3T3-E1 osteoblasts [2] = assay: Cell viability / cell number NBB assay; assay type: cell-based; conditions: for cell number (NBB assay): 0.625 to 10 μM; for cell viability (NBB assay): higher concentrations (25-100 μM)
Description: MC3T3-E1 cells were seeded at 7×10^3 cells/well in 96-well plates for 2 days. […] After treatment, cells were fixed with 3% formalin and stained with NBB solution (0.05% NBB with 0.1 M sodium acetate and 9% acetic acid) at room temperature. Twenty four hours later, staining solution was removed and distilled water was added to remove free dye. Then, 100 ul of 50 mM […] was added to dissolve bound dye and recorded absorbance at 590 nm.

[3] = test system: MC3T3-E1 osteoblast cells; assay: Osteoblast mineralization assay (Alizarin Red staining); assay type: cell-based; conditions: for Alizarin Red staining (calcium deposition) in cell layers: […] or 5 μM in osteoblast mineralization medium, day 14, compared with control
Description: MC3T3-E1 cells were seeded at 1×10^5 cells per well in 24-well plates. […] […] Cells were washed twice with PBS and fixed with 10% formalin for 1 hour. Fixed cell was washed twice with distilled water and stained with 2% Alizarin Red S solution (pH 4.1) in the dark for 1 hour. Stain solution was removed and washed 4 times with distilled water.

MC3T3-E1 osteoblast = assay: mRNA expression of osteogenesis-related molecules by real-time PCR; assay type: cell-based; conditions: for AFT6 mRNA expression / ALP mRNA expression / ATF3 mRNA expression / Axin2 mRNA expression / BMP2 mRNA expression / BMP7 mRNA expression / BSP mRNA expression / COL1A1 mRNA expression / Fzd1 mRNA expression / Fzd2 mRNA expression / Fzd5 mRNA expression / LRP5 mRNA expression / OCN mRNA expression / OPN mRNA expression / OSN mRNA expression / OSX mRNA expression / Runx2 mRNA expression / VDR mRNA expression / Wnt3A mRNA expression / Wnt5A mRNA expression / Wnt7B mRNA expression / Wnt11 mRNA expression: BMP2 30 ng/ml, ASC 400 μM + β-GP 5 mM, F1 5 μM, F4 5 μM, relative to DMSO control, normalized to GAPDH; for levels of osteocalcin (OCN) and osteoportin (OPN) mRNA: treatment of cells with F1 or F4
Description: MC3T3-E1 cells were seeded in 6-well plates at 1×10^5 cells per well for 2 days. […] Total RNA was isolated at Day 2 and Day 4 with Trizol® reagent, 1 ug of total RNA was subjected to reverse transcription/cDNA synthesis using Superscript III first-strand synthesis system (Life Technologies).
Equal amount of cDNA generated from reverse transcription reactions were subjected to real-time PCR with SYBR® Green PCR Master Mix and primers for osteoblast differentiation markers. Primers used included: […]
Osteoblast differentiation markers genes expression were analyzed by ABI prism 7900HT Sequence Detection System and the relative level of transcript expression was quantified by ΔΔCt method.

p38 = assay: Western blot of phosphorylated p38 and total p38; assay type: cell-based; conditions: 5 μM, 15 min and 30 min, MC3T3-E1 osteoblasts
Description: MC3T3-E1 were lysed with 20 mM Tris pH8.0, 137 mM NaCl, 2 mM EDTA, 1% Triton X-100 and 10% Glycerol with protease inhibitor cocktail (Roche, complete). Protein concentration was determined by Bradford Protein Assay (Bio-Rad) and equal amount of proteins (30 μg) was resolved by SDS-PAGE and transferred onto PVDF membrane. The membrane was blocked with 3% BSA in Tris-buffered saline containing 0.1% Tween 20 and incubated with primary antibody (1:1000) overnight at 4° C. then incubated with HRP-linked secondary antibody for 1 h. Chemiluminescence signals were detected using enhanced chemiluminescence reagents (GE Healthcare) on X-Ray films (Fujifilm).
The levels of phosphorylated p38 and total p38 were determined by immunoblotting experiments.

[4] = test system: estrogen responsive gene elements (ERE); assay: pERE-Luc reporter gene assay in MC3T3-E1; assay type: cell-based; conditions: 0.5-10 μM, MC3T3-E1
Description: MC3T3-E1 were seeded at 9.0×10^4 per well in 24-well plates. Twenty-four hours after cell seeding, cells were transiently transfected with 500 ng pERE-Luc (contains three repeats of estrogen-response element) by lipofectamine 2000 (Life Technologies) according to manufacturers' instruction (lipofectamine:DNA=3:1).

MCF7 cells = assay: BrdU incorporation proliferation assay; assay type: cell-based
From the text: The effect of F compounds on estrogen dependent cancer cells was investigated (FIG. 8). […] The fold increase of MCF7 proliferation was similar to that induced by estradiol treatment.

MDA-MB-231 cells = assay: BrdU incorporation proliferation assay; assay type: cell-based; conditions: 5 μM
Estrogen receptor beta = Estrogen receptor beta (Homo sapiens, UniProt Q92731); assay: biochemical
Estrogen receptor beta, sequence (Q92731 whole entry, species assumed): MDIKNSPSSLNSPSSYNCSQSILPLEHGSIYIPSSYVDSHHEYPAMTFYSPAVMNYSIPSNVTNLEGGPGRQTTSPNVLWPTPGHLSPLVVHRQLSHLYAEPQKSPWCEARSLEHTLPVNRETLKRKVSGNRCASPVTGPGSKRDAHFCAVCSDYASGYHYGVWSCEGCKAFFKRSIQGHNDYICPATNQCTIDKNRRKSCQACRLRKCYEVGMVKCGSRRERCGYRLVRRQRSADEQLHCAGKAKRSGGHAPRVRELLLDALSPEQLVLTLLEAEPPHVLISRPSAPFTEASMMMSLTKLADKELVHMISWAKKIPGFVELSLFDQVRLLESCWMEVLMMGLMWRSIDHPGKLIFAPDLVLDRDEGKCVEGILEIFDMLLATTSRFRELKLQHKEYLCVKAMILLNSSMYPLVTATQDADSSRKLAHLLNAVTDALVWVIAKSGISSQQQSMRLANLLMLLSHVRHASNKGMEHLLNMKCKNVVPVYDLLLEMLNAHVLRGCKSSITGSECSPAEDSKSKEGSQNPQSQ

C=Cc1cc(O)c(C)c2c1-c1ccc(O)c(C)c1CC2 [F1]
cellular alkaline phosphatase (ALP) enzyme activities (MC3T3-E1 osteoblasts [1]): increased the cellular alkaline phosphatase (ALP) enzyme activities in a concentration-dependent manner
concentration at which increases in ALP activities were already evident (MC3T3-E1 osteoblasts [1]): 0.5 µM
concentration of maximum increase in ALP activities (MC3T3-E1 osteoblasts [1]): 5 µM
cell number (NBB assay) (MC3T3-E1 osteoblasts [2]): slightly increased the cell number
cell viability (NBB assay) (MC3T3-E1 osteoblasts [2]): significant loss of cell viability
calcium deposition at higher vs lower concentration ([3]; 5 μM compared with […]): More calcium deposition
Alizarin Red staining (calcium deposition) in cell layers [3]: significantly enhanced
AFT6 mRNA expression (MC3T3-E1 osteoblast; D 2): 1.5 fold
ALP mRNA expression (MC3T3-E1 osteoblast; D 2): 1.8 fold
ATF3 mRNA expression (MC3T3-E1 osteoblast; D 2): 0.8 fold
Axin2 mRNA expression (MC3T3-E1 osteoblast; D 2): 0.9 fold
BMP2 mRNA expression (MC3T3-E1 osteoblast; D 2): 1.2 fold
BMP7 mRNA expression (MC3T3-E1 osteoblast; D 2): 1.6 fold
BSP mRNA expression (MC3T3-E1 osteoblast; D 2): 2.1 fold
COL1A1 mRNA expression (MC3T3-E1 osteoblast; D 2): 0.7 fold
Fzd1 mRNA expression (MC3T3-E1 osteoblast; D 2): 3.0 fold
Fzd2 mRNA expression (MC3T3-E1 osteoblast; D 2): 1.0 fold
Fzd5 mRNA expression (MC3T3-E1 osteoblast; D 2): 0.8 fold
LRP5 mRNA expression (MC3T3-E1 osteoblast; D 2): 0.8 fold
OCN mRNA expression (MC3T3-E1 osteoblast; D 2): 29 fold
OPN mRNA expression (MC3T3-E1 osteoblast; D 2): 1.4 fold
OSN mRNA expression (MC3T3-E1 osteoblast; D 2): 0.7 fold
OSX mRNA expression (MC3T3-E1 osteoblast; D 2): 0.6 fold
Runx2 mRNA expression (MC3T3-E1 osteoblast; D 2): 1.1 fold
VDR mRNA expression (MC3T3-E1 osteoblast; D 2): 0.9 fold
Wnt3A mRNA expression (MC3T3-E1 osteoblast; D 2): 0.9 fold
Wnt5A mRNA expression (MC3T3-E1 osteoblast; D 2): 0.8 fold
Wnt7B mRNA expression (MC3T3-E1 osteoblast; D 2): 0.8 fold
Wnt11 mRNA expression (MC3T3-E1 osteoblast; D 2): 1.1 fold
AFT6 mRNA expression (MC3T3-E1 osteoblast; D 4): 1.0 fold
ALP mRNA expression (MC3T3-E1 osteoblast; D 4): 2.9 fold
ATF3 mRNA expression (MC3T3-E1 osteoblast; D 4): 1.0 fold
Axin2 mRNA expression (MC3T3-E1 osteoblast; D 4): 1.0 fold
BMP2 mRNA expression (MC3T3-E1 osteoblast; D 4): 0.7 fold
BMP7 mRNA expression (MC3T3-E1 osteoblast; D 4): 1.1 fold
BSP mRNA expression (MC3T3-E1 osteoblast; D 4): 1.3 fold
COL1A1 mRNA expression (MC3T3-E1 osteoblast; D 4): 0.9 fold
Fzd1 mRNA expression (MC3T3-E1 osteoblast; D 4): 2.6 fold
Fzd2 mRNA expression (MC3T3-E1 osteoblast; D 4): 0.7 fold
Fzd5 mRNA expression (MC3T3-E1 osteoblast; D 4): 0.6 fold
LRP5 mRNA expression (MC3T3-E1 osteoblast; D 4): 0.6 fold
OCN mRNA expression (MC3T3-E1 osteoblast; D 4): 11 fold
OPN mRNA expression (MC3T3-E1 osteoblast; D 4): 1.8 fold
OSN mRNA expression (MC3T3-E1 osteoblast; D 4): 1.6 fold
OSX mRNA expression (MC3T3-E1 osteoblast; D 4): 0.5 fold
Runx2 mRNA expression (MC3T3-E1 osteoblast; D 4): 1.2 fold
VDR mRNA expression (MC3T3-E1 osteoblast; D 4): 0.5 fold
Wnt3A mRNA expression (MC3T3-E1 osteoblast; D 4): 2.8 fold
Wnt5A mRNA expression (MC3T3-E1 osteoblast; D 4): 0.6 fold
Wnt7B mRNA expression (MC3T3-E1 osteoblast; D 4): 1.1 fold
Wnt11 mRNA expression (MC3T3-E1 osteoblast; D 4): 0.6 fold
levels of osteocalcin (OCN) and osteoportin (OPN) mRNA (MC3T3-E1 osteoblast): markedly increased

C=Cc1cc(O)cc2c1-c1ccc(O)c(C)c1CC2 [F4, effusol]
cellular alkaline phosphatase (ALP) enzyme activities (MC3T3-E1 osteoblasts [1]): increased the cellular alkaline phosphatase (ALP) enzyme activities in a concentration-dependent manner
concentration at which increases in ALP activities were already evident (MC3T3-E1 osteoblasts [1]): 0.5 µM
concentration of maximum increase in ALP activities (MC3T3-E1 osteoblasts [1]): 5 µM
cell number (NBB assay) (MC3T3-E1 osteoblasts [2]): slightly increased the cell number
cell viability (NBB assay) (MC3T3-E1 osteoblasts [2]): significant loss of cell viability
Alizarin Red staining (calcium deposition) in cell layers [3]: significantly enhanced
mRNA of Wnt pathway members Wnt3A and frizzled 1 (MC3T3-E1 osteoblast): increases
AFT6 mRNA expression (MC3T3-E1 osteoblast; D 2): 1.5 fold
ALP mRNA expression (MC3T3-E1 osteoblast; D 2): 2.1 fold
ATF3 mRNA expression (MC3T3-E1 osteoblast; D 2): 0.7 fold
Axin2 mRNA expression (MC3T3-E1 osteoblast; D 2): 1.1 fold
BMP2 mRNA expression (MC3T3-E1 osteoblast; D 2): 1.0 fold
BMP7 mRNA expression (MC3T3-E1 osteoblast; D 2): 1.0 fold
BSP mRNA expression (MC3T3-E1 osteoblast; D 2): 1.6 fold
COL1A1 mRNA expression (MC3T3-E1 osteoblast; D 2): 1.0 fold
Fzd1 mRNA expression (MC3T3-E1 osteoblast; D 2): 3.3 fold
Fzd2 mRNA expression (MC3T3-E1 osteoblast; D 2): 0.8 fold
Fzd5 mRNA expression (MC3T3-E1 osteoblast; D 2): 0.7 fold
LRP5 mRNA expression (MC3T3-E1 osteoblast; D 2): 0.9 fold
OCN mRNA expression (MC3T3-E1 osteoblast; D 2): 17 fold
OPN mRNA expression (MC3T3-E1 osteoblast; D 2): 1.5 fold
OSN mRNA expression (MC3T3-E1 osteoblast; D 2): 0.9 fold
OSX mRNA expression (MC3T3-E1 osteoblast; D 2): 0.6 fold
Runx2 mRNA expression (MC3T3-E1 osteoblast; D 2): 1.3 fold
VDR mRNA expression (MC3T3-E1 osteoblast; D 2): 2.1 fold
Wnt3A mRNA expression (MC3T3-E1 osteoblast; D 2): 0.9 fold
Wnt5A mRNA expression (MC3T3-E1 osteoblast; D 2): 1.0 fold
Wnt7B mRNA expression (MC3T3-E1 osteoblast; D 2): 0.6 fold
Wnt11 mRNA expression (MC3T3-E1 osteoblast; D 2): 0.8 fold
AFT6 mRNA expression (MC3T3-E1 osteoblast; D 4): 2.1 fold
ALP mRNA expression (MC3T3-E1 osteoblast; D 4): 4.6 fold
ATF3 mRNA expression (MC3T3-E1 osteoblast; D 4): 0.9 fold
Axin2 mRNA expression (MC3T3-E1 osteoblast; D 4): 1.1 fold
BMP2 mRNA expression (MC3T3-E1 osteoblast; D 4): 0.9 fold
BMP7 mRNA expression (MC3T3-E1 osteoblast; D 4): 1.3 fold
BSP mRNA expression (MC3T3-E1 osteoblast; D 4): 1.2 fold
COL1A1 mRNA expression (MC3T3-E1 osteoblast; D 4): 1.2 fold
Fzd1 mRNA expression (MC3T3-E1 osteoblast; D 4): 5.8 fold
Fzd2 mRNA expression (MC3T3-E1 osteoblast; D 4): 0.8 fold
Fzd5 mRNA expression (MC3T3-E1 osteoblast; D 4): 0.8 fold
LRP5 mRNA expression (MC3T3-E1 osteoblast; D 4): 1.0 fold
OCN mRNA expression (MC3T3-E1 osteoblast; D 4): 9 fold
OPN mRNA expression (MC3T3-E1 osteoblast; D 4): 2.7 fold
OSN mRNA expression (MC3T3-E1 osteoblast; D 4): 2 fold
OSX mRNA expression (MC3T3-E1 osteoblast; D 4): 0.6 fold
Runx2 mRNA expression (MC3T3-E1 osteoblast; D 4): 1.7 fold
VDR mRNA expression (MC3T3-E1 osteoblast; D 4): 1.6 fold
Wnt3A mRNA expression (MC3T3-E1 osteoblast; D 4): 1.9 fold
Wnt5A mRNA expression (MC3T3-E1 osteoblast; D 4): 0.8 fold
Wnt7B mRNA expression (MC3T3-E1 osteoblast; D 4): 0.1 fold
Wnt11 mRNA expression (MC3T3-E1 osteoblast; D 4): 0.4 fold
levels of osteocalcin (OCN) and osteoportin (OPN) mRNA (MC3T3-E1 osteoblast): markedly increased
levels of phosphorylated p38 (p38): increased levels of phosphorylated p38
transcriptional activity driven by estrogen responsive gene elements (ERE) [4]: stimulated the transcriptional activity driven by estrogen responsive gene elements (ERE) in a dose-dependent manner
MCF7 cell proliferation induced by estradiol (MCF7 cells; 5 μM): significantly suppress
MCF7 cell proliferation (MCF7 cells; dose of 5 μM or higher): inhibited the proliferation
MCF7 cell proliferation (MCF7 cells; low dose of 0.3 μM): induced MCF7 cell proliferation
cell proliferation induced by 17beta-estradiol in MDA-MB-231 cells (ER negative) (MDA-MB-231 cells): had no effect
IC50 (Estrogen receptor beta): 5.6 nM

— patent US12383511B2, “Osteogenic agents and uses thereof” (GoldPorp Pharma Limited, priority 2022, dated 2025)
